Where two headings read alike, the source gives them in different places.
Tests used:
[1] = tested on: 69SG + 5M Recombinant RT HXB2 M41L,T69S-SG, L210W, R211K, L214F, T215Y; assay: Drug resistance indicator assay, remaining RT activity; conditions: EFV 9.0 μM
Description: (§5) Drug reaction solution: A buffer identical to above mentioned RT Reaction solution with a defined concentration of an antiviral drug added.
(§6) Each lysate is split into two aliquots, one whereof is added to a well containing drug at a predetermined concentration, and one whereof is added to a well without added drug. Apart from the lysates, said HIV drug susceptibility reference samples are also included in the assay.
(§7) The virus susceptibility to treatment with the drug can be determined from the relation between the enzyme activities in the presence and in absence of the drug. This can be expressed as percent remaining RT activity, i.e. the quota between signal in presence of drug and signal in absence of drug times 100.

[2] = tested on: BLV RT, Cell culture virus FLK-BLV cells; assay: as above; conditions: EFV 9.0 μM
[3] = molecular target: T1, SIV Recombinant RT SIVsmH4 (Simian immunodeficiency virus, UniProt P12502); assay: as above; type: biochemical; conditions: for remaining activity at 9 µM: EFV 9.0 μM
T1 construct: The recombinantly expressed and purified SIV RT was derived from the molecular clone pSIVsm/H4; made in house; host or cells: E. coli BL21 (DE3), vector pSRT.ET 11c
T1 sequence (P12502 598-1156 limits assumed): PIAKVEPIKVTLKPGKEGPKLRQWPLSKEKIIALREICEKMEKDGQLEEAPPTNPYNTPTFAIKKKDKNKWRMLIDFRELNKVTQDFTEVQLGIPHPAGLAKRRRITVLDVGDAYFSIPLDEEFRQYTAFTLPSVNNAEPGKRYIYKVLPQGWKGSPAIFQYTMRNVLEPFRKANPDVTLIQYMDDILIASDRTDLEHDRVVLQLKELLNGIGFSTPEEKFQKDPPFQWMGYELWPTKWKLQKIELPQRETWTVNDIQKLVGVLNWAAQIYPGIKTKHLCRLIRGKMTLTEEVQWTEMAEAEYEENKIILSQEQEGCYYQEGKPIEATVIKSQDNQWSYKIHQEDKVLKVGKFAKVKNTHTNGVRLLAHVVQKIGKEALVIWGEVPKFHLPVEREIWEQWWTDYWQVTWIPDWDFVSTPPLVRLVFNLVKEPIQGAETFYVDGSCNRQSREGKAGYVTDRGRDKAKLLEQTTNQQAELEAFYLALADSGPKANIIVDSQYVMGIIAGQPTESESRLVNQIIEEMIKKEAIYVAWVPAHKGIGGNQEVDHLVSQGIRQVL
Description: The recombinantly expressed and purified SIV RT was derived from the molecular clone pSIVsm/H4. An expression vector pSRT.ET 11c was constructed and expression of SIV-RT in E. coli strain BL21 (DE3) in ordinary LB medium was carried out. The enzyme was purified in three chromatographic steps on a Heparin Sepharose CL-6B column, a Sepharose FF column and a Phenyl Sepharose CL-4B column.
(§1) The RT extracts recovered from this process and the other RT samples were analyzed for remaining activity according to above described drug resistance indicator assay.

[4] = tested on: PERV RT, Cell culture virus PERV-PK15; assay: as above; conditions: EFV 9.0 μM, 6 mM Mn2+
Description: Virus culture supernatant was cleared from cell debris by centrifugation, aliquoted and stored at −70° C. until use
as §5
All buffers used for analysis of γ-retroviruses RTs were supplemented with 6 mM Mn2+, but were otherwise identical to the buffers described above.
as §6, §7

[5] = tested on: 69SS + 5M Recombinant RT HXB2 M41L,T69S-SS, L210W, R211K, L214F, T215Y; assay: as above; conditions: EFV 9.0 μM
Description: as §5, §6, §7

[6] = molecular target: T2, MMTV Recombinant RT BR6 strain (Mouse mammary tumor virus, UniProt P03365); assay: as above
T2 sequence (P03365 861-1436 limits assumed): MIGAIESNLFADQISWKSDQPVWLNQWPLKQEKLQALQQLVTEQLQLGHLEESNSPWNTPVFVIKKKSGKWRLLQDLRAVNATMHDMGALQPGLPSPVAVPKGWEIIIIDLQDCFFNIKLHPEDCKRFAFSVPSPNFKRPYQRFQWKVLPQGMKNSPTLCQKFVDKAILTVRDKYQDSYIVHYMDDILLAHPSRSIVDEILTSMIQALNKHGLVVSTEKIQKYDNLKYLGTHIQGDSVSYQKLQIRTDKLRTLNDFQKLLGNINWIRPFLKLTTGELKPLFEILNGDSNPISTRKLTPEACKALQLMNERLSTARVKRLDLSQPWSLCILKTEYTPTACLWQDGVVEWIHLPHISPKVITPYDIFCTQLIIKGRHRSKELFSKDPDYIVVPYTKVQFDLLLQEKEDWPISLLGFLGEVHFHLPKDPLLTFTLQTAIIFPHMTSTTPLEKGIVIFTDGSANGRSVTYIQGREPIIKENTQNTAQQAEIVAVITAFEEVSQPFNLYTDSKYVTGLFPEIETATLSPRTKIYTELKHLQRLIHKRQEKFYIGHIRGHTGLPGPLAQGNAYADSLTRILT
Description: as §5, §6, §7

[7] = tested on: HIV-2 RT, Cell culture virus CRF01_AB; assay: as above; conditions: EFV 9.0 μM; HIV-2 CRF01_AB
[8] = tested on: FIV RT, Cell culture virus M2 CladB; assay: as above; type: biochemical
Description: as §1

[9] = tested on: JSRV RT, Cell culture virus UK strain; assay: as above; conditions: EFV 9.0 μM
Description: as §5, §6, §7

[10] = tested on: HTLV-1 RT, Cell culture virus MT-2 Cells; assay: as above; conditions: EFV 9.0 μM
Description: as §5
Each lysate is split into two aliquots, one whereof is added to a well containing drug at a predetermined concentration, and one whereof is added to a well without added drug.
as §7

[11] = tested on: Mammalian γ -polymerase, mithochondria, Beef Heart; assay: Drug resistance indicator assay, remaining polymerase activity; conditions: EFV 9.0 μM
Description: as §5, §6, §7

[12] = molecular target: HTLV-2 RT, Cell culture virus (Human T-cell leukemia virus 2, UniProt P03363); assay: Drug resistance indicator assay, remaining RT activity
Chain of HTLV-2 RT, Cell culture virus (P03363 580-1166): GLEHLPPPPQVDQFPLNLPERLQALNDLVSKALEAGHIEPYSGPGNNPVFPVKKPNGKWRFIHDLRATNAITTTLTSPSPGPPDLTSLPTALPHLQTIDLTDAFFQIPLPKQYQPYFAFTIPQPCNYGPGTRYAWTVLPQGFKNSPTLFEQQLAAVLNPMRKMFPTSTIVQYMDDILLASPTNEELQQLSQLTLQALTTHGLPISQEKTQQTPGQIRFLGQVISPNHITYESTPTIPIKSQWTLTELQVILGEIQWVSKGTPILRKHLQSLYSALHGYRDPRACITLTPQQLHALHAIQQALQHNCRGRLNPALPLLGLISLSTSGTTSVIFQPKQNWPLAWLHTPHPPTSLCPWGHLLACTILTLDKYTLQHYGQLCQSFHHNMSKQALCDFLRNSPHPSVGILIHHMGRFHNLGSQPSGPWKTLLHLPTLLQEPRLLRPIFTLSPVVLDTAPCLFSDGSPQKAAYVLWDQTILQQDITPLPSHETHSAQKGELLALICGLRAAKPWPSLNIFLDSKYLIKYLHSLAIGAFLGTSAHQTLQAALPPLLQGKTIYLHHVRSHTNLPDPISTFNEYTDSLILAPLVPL

[13] = tested on: RT extracted from HIV-1 C Plasma Sa72 wild type; assay: as above; type: biochemical
Description: (§2) Isolation of HIV is performed in a separation plate, a 96 deep-well microplate (well volume 2 ml). The Viral Load assay is started by addition of 40 μl sample additive e.g 5,5′-dithiobis-(2-nitrobenzoic acid) to each well (see FIG. 2). Thereafter the patient plasmas and control samples are added. Sample additive is mixed with the plasma prior to isolation of HIV for inactivation of certain enzymes present in the plasma. After 20 minutes incubation, a slurry containing 1 μm magnetic polymeric beads, is added to the wells. The positively charged beads are used to capture the HIV particles. At low pH (e.g. 5.5) and appropriate salt concentration the negatively charged HIV particles bind to the beads while most of the other components present in plasma will not bind, e.g. the proteins (antibodies) and anti-retroviral drugs (ARVs). After an additional five minutes incubation, the microwell plate is transported to a magnetic plate. When exposed to the magnetic field from the magnetic plate, the beads will be trapped to the walls of the wells. The plasma can then be removed by aspiration using a pipette. The separation plate is then transported back to the shaker, away from the magnetic plate.
(§3) The wash procedure (see FIG. 3) starts by adding a first wash buffer, the Bead Wash Buffer, and the entire separation plate will be shaken during three minutes to resuspend the beads. After that, the separation plate is moved to the magnetic plate where the beads will be exposed to the magnetic field and trapped to the walls of the wells. Next, the wash buffer is aspirated. The separation plate is then transported back to the shaker, away from the magnetic plate. In the current example, this wash procedure is repeated three times with the Bead Wash Buffer (referred to as “Wash solution 1” in FIG. 3) and one time with the second wash buffer, the so called Bead Reconditioning Buffer (referred to as “Wash solution 2” in FIG. 3).
(§4) The reverse transcriptase (RT) is now to be extracted from the viral particles, which is illustrated in FIG. 4. The HIV particle is composed of a protein core surrounded by a lipid bilayer envelope that will break if it is exposed to certain detergents. Once the lipid bilayer envelope is dissolved, the protein core falls apart and the RT inside is released. When the last wash step is finalized, lysis buffer containing e. g. the detergent Synperonic A11 is added to the wells, in FIG. 4 referred to as “lysis buffer”. The virus envelope breaks and the reverse transcriptase, RT, is released. With the magnetic beads still bound to the walls of the wells, the lysate containing the released RT is collected by aspiration and used in the subsequent RT reaction step.

[14] = tested on: RT extracted from HIV-1 C Plasma Sa147 K103N, E138Q, Y318F, M184V; assay: as above; type: biochemical
Description: as §2, §3, §4

[15] = molecular target: HIV-1 B Recombinant RT HXB2 wild type (Human immunodeficiency virus type 1 group M subtype B, UniProt P04585); assay: biochemical; conditions: read-out: Remaining activity (% of actvity in absence of drug)
Description: as §1

[16] = molecular target: T3, HIV-1 B Recombinant RT BH10 wild type (Human immunodeficiency virus type 1 group M subtype B, UniProt P03366); assay: biochemical; conditions: read-out: Remaining activity (% of actvity in absence of drug)
T3 construct: His-tag (C); made in house; host or cells: E. coli BL21 (DE3); plasmid purchased from Genescript
Description: as §1

O=C1Nc2ccc(Cl)cc2[C@@](C#CC2CC2)(C(F)(F)F)O1 [EFV, (−)6-chloro-4-cyclopropylethynyl-4-trifluoromethyl-I,4-dihydro-2H-3,1-benzoxazin-2-one]
Remaining activity (%) [1]: 3.9%
Remaining activity (%) [2]: 101.7%
remaining activity at 9 µM ([3]; SIVsmH4, read-out: Remaining activity (% of actvity in absence of drug)): 99.9%
remaining activity at 9 µM ([3]; SIVsmH4, read-out: Remaining activity (%)): 103%
Remaining activity (%) [4]: 98.0%
Remaining activity (%) [5]: 3.5%
remaining activity at 9 µM [6]: 102%
Remaining activity (%) [7]: 100.2%
Remaining activity (% of actvity in absence of drug) ([8]; EFV 9.0 μM): 93.6%
Remaining activity (%) ([8]; EFV 9.0 μM): 93.6%
Remaining activity (%) [9]: 102.7%
Remaining activity (%) [10]: 93.8%
Remaining activity (%) [11]: 94.8%
remaining activity at 9 µM [12]: 91.7%
Remaining activity (% of actvity in absence of drug) ([13]; EFV 9.0 μM): 8.3%
Remaining activity (% of actvity in absence of drug) ([14]; EFV 9.0 μM): 87.8%

Cc1ccnc2c1NC(=O)c1cccnc1N2C1CC1 [NPV, 11-cyclopropyl-5,11-dihydro-4-methyl-6H-dipyrido[3,2-b:2′,3′-f][1,4]diazepin-6-one]
remaining activity at 81 µM ([3]; read-out: Remaining activity (% of actvity in absence of drug)): 99.5%
remaining activity at 81 µM [15]: 8.1%
remaining activity at 81 µM [16]: 3.4%
Remaining activity (% of actvity in absence of drug) ([8]; NPV 81.0 μM): 87.7%
Remaining activity (% of actvity in absence of drug) ([13]; NPV 81.0 μM): 16.1%
Remaining activity (% of actvity in absence of drug) ([14]; NPV 81.0 μM): 94.9%

Cc1cc(/C=C/C#N)cc(C)c1Nc1ccnc(Nc2ccc(C#N)cc2)n1 [RPV, 4-{[4-({4-[(1E)-2-cyanoeth-1-en-1-yl]-2,6-dimethylphenyl}amino)pyrimidin-2-yl]amino}benzonitrile]
remaining activity at 12 µM ([3]; RPV 12.0 μM, SIVsmH4, read-out: Remaining activity (% of actvity in absence of drug)): 108%
remaining activity at 12 µM ([15]; RPV 12.0 μM, HXB2 wild type): 2.4%
remaining activity at 12 µM ([16]; RPV 12.0 μM, BH10 wild type): 2.5%
Remaining activity (% of actvity in absence of drug) ([8]; RPV 12.0 μM): 86.1%
Remaining activity (% of actvity in absence of drug) ([13]; RPV 12.0 μM): 9.3%
Remaining activity (% of actvity in absence of drug) ([14]; RPV 12.0 μM): 80.8%

Cc1cc(C#N)cc(C)c1Oc1nc(Nc2ccc(C#N)cc2)nc(N)c1Br [ETV, 4-({6-amino-5-bromo-2-[(4-cyanophenyl)amino]pyrimidin-4-yl}oxy)-3,5-dimethylbenzonitrile]
remaining activity at 21.8 µM ([3]; ETV 21.8 μM, SIVsmH4, read-out: Remaining activity (% of actvity in absence of drug)): 98.5%
remaining activity at 21.8 µM [15]: 2.8%
remaining activity at 21.8 µM [16]: 3.5%
Remaining activity (% of actvity in absence of drug) ([8]; ETV 21.8 μM): 90.6%
Remaining activity (% of actvity in absence of drug) ([13]; ETV 21.8 μM): 6.5%
Remaining activity (% of actvity in absence of drug) ([14]; ETV 21.8 μM): 68.0%

Reference: US20210139947A1, “METHOD FOR ASSESSING SUSCEPTIBILITY OF A VIRUS TO TREATMENT BY MEASURING ENZYME ACTIVITY AND A SYSTEM THEREFORE” (priority 2017, published 2021)
